Measurements reported in patent US5302611A, “Oxindole alkaloids having properties stimulating the immunologic system & preparation containing the same” (Keplinger; Klaus, priority 1980, dated 1994).
Where two headings read alike, the source gives them in different places.

Key:
[1] = test system: ascites cells of Walker-250-carcinosarcoma; assay: Cytotoxicity test by the 3H-thymidine-incorporation test on ascites cells; assay type: cell-based, rats; settings: Rattus norvegicus, read-out: mean value of the inhibition of 3H-thymidine incorporation
From the text: 5. Cytotoxicity test by the ^3 H-thymidine-incorporation test on ascites cells
Since in the granulocytic test some substances lyse the granulocytes at high concentrations we examined the cell-damaging effect at the model of the ^3 H-thymidine-incorporation test in ascites cells to be able to find a possible relation between the phagocytosis increase and cytotoxicity in potential active substances.
In this in-vitro-test system according to WEITZEL et al (H oppe-Seyler's Z. physiolog. Chem. 348, 433, 1967) the cytotoxicity of substances by inhibition of the DNA-synthesis of tumour cells can be numerically determined by the changed incorporation rates of ^3 H-thymidine in ascites cells of Walter-250-carcinos arcoma of rats.
The test was carried out as follows: 3 ml of cell suspension of Walker-250-carcinosarcoma-ascites were mixed with 10 ml of MEDIUM L-15 (Boehringer) in a 50 ml centrifugal glass and centrifugated for 10 minutes. The supernatant was decanted and the centrifugal glass was filled up with medium to 1 cm below the rim. From the stirred cell suspension 1 ml (corresponds to 2×10^6 cells/ml) per sample was given into a centrifugal glass and 500 μl of the test solution were added, the control test was carried out with 500 μl of medium. […] The filters were given in polyethylene flasks and the activities were measured in toluene-scintillator. […]

[2] = test system: isolated polymorphonuclear leucocytes (PMNL); assay: Chemiluminescence test (CL), PMNL method (isolated granulocytes); assay type: cell-based, human; settings: for Peak-Maximum: control 2.12; for tmax: control 50.0
Method: (§1) 2. Chemiluminescence test (CL)
(§2) The low light yield of such CL-reactions of phagocytised cells is increased in the in-vitro-experiment by the addition of substances which are oxydated by activated oxygen and thus produce light of a certain wavelength, which can be physically measured. Suitable substrates are luminole (5-amino-2,3-dihydro-1,4-phthalazindione) and lucigenine (10,10'-dimethyl-9,9'-biacri-diniumdinitrate), which increase the CL-response by 10^3 times.
(§3) All tests were carried out in 6-channel-Biolumat LB 9505 of Berthold, connected to an Apple-computer with a CL-evaluation program of Berthold.
(§4) Lucigenine was chosen for light amplification which emits photons at a narrow wavelength distribution of about 510 nm and thus almost lies in the optimum of the photo-multiplier sensitivity.
(§5) The pH-value of the measuring solution should be between 7.1 and 7.4, which is obtained by the addition of veronal-buffered salt solution. The test substances were dissolved in phosphate-buffered salt solution, (PBS-buffer). Both buffer systems contain 0.1% of glucose, because the "respiratory-burst"-reaction is connected with an increase of the glucose-metabolism.
(§6) Opsonised zymosan was used for phagocyte-activation. The measurement of the CL of isolated granulocytes was carried out with native blood of isolated polymorphonuclear leucocytes (PMNL), which had been adjusted with PBS-Puffer to 10^6 […].
(§7) The test substances were first together with the isolated granulocytes or with the whole blood incubated at room temperature for 10 minutes and then in biclumate for 10 minutes at 37° C. After addition of the opsonised zymosan, measurement in the biolumat at 37° C. started. […] A curve which was typical for each substance was obtained. The integrated surfaces are directly proportional to the intensity of the CL-response.
(§8) For determining the stimulation of the "respiratory-burst" of granulocytes,which had taken place, the same formula as for the granulocytic test was used.
20 ml of native blood were mixed with 30 mg EDTA. 15 ml of this blood were mixed with 7 ml of dextran in a syringe and allowed to stand at room temperature for 30 minutes. The leucocyte-containing supernatant was transfered into a sterile centrifugal tube and centrifugated at 1000 r.p.m. for 10 minutes. The deposit consisted of leucocytes and residual portions of erythrocytes, which can influence measurement by their colour quench. The residual erythrocytes were removed by hypotonic lyis. For this purpose, the deposit was suspended in 0.25% of NaCl-solution and agitated on the whirlmix for 20 seconds. Then 20 ml of 1.6% NaCl-solution were admixed and agitated again. After centrifugation at 2000 r.p.m. for 10 minutes, the supernatant was sucked off and the whole process was repeated twice. Subsequently, the deposit was suspended in 2 ml of PBS-buffer and diluted 1:10 with Turcks-solution. It was adjusted in the Neubauer's chamber with PBS-buffer to 10^6 -cells/ml.
630 μl of veronal-buffered salt solution
(§9) 100 μl of lucigenine-solution
(§10) 200 μl of substance dissolved in PBS and PBS as control
(§11) After preincubation at room temperature for 10 minutes and subsequent incubation for 10 minutes at 37° C. in 6-channel-Biolumat, 40 μl of opsonised zymosan were admixed under through stirring and measurement was started. Measuring was stopped after 60 minutes.
(§12) The CL-response of the samples was stored by a computer over the measuring period, and after measurement illustrated in the form of a curve. By integration of the surfaces, the intensity of the CL-response of the respective sample was obtained in cpm.
(§13) The increase S of the CL-response by a test substance was calculated according to [formula]

diluted whole blood = assay: Chemiluminescence test (CL), whole blood method; assay type: cell-based; settings: Homo sapiens, 1 h, read-out: Percental increase of the CL-response
Method: as §1, §2, §3, §4, §5, §6, §7, §8
20 ml of native blood were mixed with 30 mg EDTA as anti-coagulant and diluted 1:100 with PBS-buffer.
460 μl of veronal-buffered salt solution
200 μl of diluted whole blood
as §9, §10, §11, §12, §13

[3] = test system: neutrophil granulocytes (PMNL); assay: Granulocytic test modified after BRANDT (phagocytosis of yeast particles); assay type: cell-based, human; settings: up to dilutions of 10^-6 %
From the text: 1. […] They represent about 60-70% of all leucocytes in the human blood. The phagocytosis effect of all these granulocytes can be measured in vitro according to a method developed by BRAND (Scand. J. Haematol. Suppl. 2, 1967) and modified by TYMPNER (Munich Med. Weekly 8, 251, 1978).
A granulocytic fraction is taken from the blood of healthy probands (PMNL--abbreviation of polymorphonuclearleucocytes)
This PMNL-fraction mainly consists of neutrophil granulocytes and few eosinophil and basophil granulocytes as well as of lymphocytes, monocytes and thrombocytes. After addition of a defined amount of yeast cells (Saccharomyces cerevisiae) and the substance to be tested incubation is carried out for 10 minutes at 37° C., the suspension is spread on an object carrier and incubated at room temperature for further 35 minutes. Then the spreads are coloured and microscopically evaluated. 100 PMNL-cells are selected per object carrier, and it is determined how many yeast particles of the individual cells have been phagocytised. The phagocytosis index indicates the average number of phagocytised yeast particles.
15 ml of heparinised venous blood of clinically healthy adults was diluted with 1.5% of dextran T 500 (Pharmacia) 2:1 and allowed to stand at room temperature for 30 minutes. The supernatant containing leucocytes was injected into a sterile plastic tube and centrifugated for 7 minutes at 500 r.p.m. The granulocytes in the deposit were washed twice with 5 ml of PPM I-buffer in each case. Then the granulocytes were suspended in about 5 ml of buffer and adjusted in the Neubauer's chamber to a concentration of 5×10^6 cells/ml.
Yeast suspended in 0.9% of NaCl was heated to 100° C., three times filtered through gaze and adjusted to 3-5×10^7 particles/ml.
The serum of 5 clinically healthy adults was mixed and frozen in portions of 5 ml. For the test dilution was carried out with 0.9% of NaCl 1:10.
The test was carried out as follows: 0.2 ml of substance dissolved in 0.9% of NaCl and 0.2 ml of 0.9% NaCl, as a control substance, were pipetted to 0.2 ml, each, of pool serum, granulocyte- and yeast suspension and first incubated for 10 minutes at 37° C. Then 0.5 ml of each preparation were applied to an object carrier and incubated in a humid chamber at room temperature for further 35 minutes. Granulocytes deposited, the supernatant was carefully washed with 0.9% of NaCl, and the object carrier was dried with a dryer.
100 granulocytes were counted out per object carrier, and it was determined how many yeast particles of the individual cells had been phagocytised. The phagocytosis index (PJ) indicates the average number of yeast particles per granulocyte. The increase (S) of the phagocytosis activity in the blank value was calculated according to: [formula]

macrophage-phagocytosis = settings: concentrations of 10^-4 % and 10^-5 %; cited from earlier work
[4] = isolated granulocytes, concentration 10^-4 %
[5] = isolated granulocytes, concentration 10^-5 %
[6] = isolated granulocytes, concentration 10^-6 %
[7] = isolated granulocytes, concentration 10^-7 %
[8] = isolated granulocytes, concentration 10^-8 %

In the case of `CN(Cc1cnc2nc(N)nc(N)c2n1)c1ccc(C(=O)N[C@@H](CCC(=O)O)C(=O)O)cc1` [Methotrexat®, N-[4-[[(2,4-Diamino-6-pteridinyl)methyl]methylamino]benzoyl]-L-glutamic acid], the inhibition at 2000 µg/mL [1] is reported as 43%.

With `COc1cccc2c1cc([N+](=O)[O-])c1c(C(=O)O)cc3c(c12)OCO3` [aristolochic acid] the activation at 0.0001 % ([2]; Homo sapiens, 1 h, PMNL, concentration 10^-4 %, read-out: Percental increase of the CL-response) was 85.1%, the activation at 1e-05 % ([2]; Homo sapiens, 1 h, PMNL, concentration 10^-5 %, read-out: Percental increase of the CL-response) was 93.5% and the activation at 1e-06 % ([2]; Homo sapiens, 1 h, PMNL, concentration 10^-6 %, read-out: Percental increase of the CL-response) was 68.3%. It also gave an activation at 1e-07 % ([2]; Homo sapiens, 1 h, PMNL, concentration 10^-7 %, read-out: Percental increase of the CL-response) of 61.9%, an activation at 1e-08 % ([2]; Homo sapiens, 1 h, PMNL, concentration 10^-8 %, read-out: Percental increase of the CL-response) of 58.7% and an activation at 1e-09 % ([2]; Homo sapiens, 1 h, PMNL, concentration 10^-9 %, read-out: Percental increase of the CL-response) of 31.3%. It also gave an activation at 0.0001 % ([2]; Homo sapiens, PMNL, 1 h, isolated granulocytes, concentration 10^-4 %, read-out: Increase of CL-response) of 126%, an activation at 1e-05 % ([2]; Homo sapiens, PMNL, 1 h, isolated granulocytes, concentration 10^-5 %, read-out: Increase of CL-response) of 160% and an activation at 1e-06 % ([2]; Homo sapiens, PMNL, 1 h, isolated granulocytes, concentration 10^-6 %, read-out: Increase of CL-response) of 69.8%. For the same compound, the activation at 1e-07 % ([2]; Homo sapiens, PMNL, 1 h, isolated granulocytes, concentration 10^-7 %, read-out: Increase of CL-response) was 52.8%, the activation at 1e-08 % ([2]; Homo sapiens, PMNL, 1 h, isolated granulocytes, concentration 10^-8 %, read-out: Increase of CL-response) was 93.4% and the Peak-Maximum [2, 4] was 4.80 cpm × 10^5. It also gave a tmax [2, 4] of 30.0 min, a Peak-Maximum [2, 5] of 5.52 cpm × 10^5 and a tmax [2, 5] of 32.6 min. The Peak-Maximum [2, 6] was 3.40 cpm × 10^5, the tmax [2, 6] was 34.6 min and the Peak-Maximum [2, 7] was 3.24 cpm × 10^5. The tmax [2, 7] was 32.0 min, the Peak-Maximum [2, 8] was 4.10 cpm × 10^5 and the tmax [2, 8] was 29.3 min. The “concentration of the efficiency maximum in the CL-test” value ([2]; isolated granulocytes, lower by a power of ten than in the granulocytic test) was 10^-5%, the activation at 0.001 % (diluted whole blood; concentration 10^-3 %) was 51.9% and the activation at 0.0001 % (diluted whole blood; concentration 10^-4 %) was 19.2%. The activation at 1e-05 % (diluted whole blood; concentration 10^-5 %) was 21.8%, the activation at 1e-06 % (diluted whole blood; concentration 10^-6 %) was 14% and the activation at 1e-07 % (diluted whole blood; concentration 10^-7 %) was 5.5%.

In the case of `CC[C@]1(O)C[C@H]2CN(CCc3c([nH]c4ccccc34)[C@@](C(=O)OC)(c3cc4c(cc3OC)N(C=O)[C@H]3[C@@](O)(C(=O)OC)[C@H](OC(C)=O)[C@]5(CC)C=CCN6CC[C@]43[C@@H]65)C2)C1` [vincristine, reference compound], the “effect in the granulocytic test” value [3] is listed as “no effects have been found” and the “in-vitro-inhibition of the macrophage-phagocytosis” value (macrophage-phagocytosis) is listed as “in-vitro-inhibitionof the macrophage-phagocytosis has been found”.
